Consider two compounds from US4814353A, “Therapeutic and prophylactic agent for gastritis” (Eisai Co., Ltd., priority 1985, dated 1989).

The nature of one data set: Solubility. Type of data set: physicochemical.
Data set [1] in a line: Clinical instances, acute gastritis, peroral teprenone (symptoms, endoscopy, side effects). The following applies: 150 mg per day perorally; for subjective symptoms: acute gastritis, 3 days after administration; for endoscopy, lesion of tunica mucosa ventriculi: 5 days after administration. The data set is classed as in vivo, human. The source says: (§1) Specific clinical instances will be illustrated to substantiate the effect of the present invention. In the clinical instances, "teprenone" refers to a compound according to the present invention (teprenone is 6,10,14,18-tetramethyl-;b 5,9,13,17-nonadecatetraen-2-one with n=4 in the general formula (I)).
person: actute gastritis
The instance is concerned with a person who visited a hospital while mainly complaining of epigastralgia.
The subjective symptoms included not only severe epigastralgia but also medium nausea, emesis, anorexia, slight pyrosis, abdominal flatulence, abdominal oppression, gastric dysphoria, and eructation.
150 mg per day of teprenone, which is a compound according to the present invention, was perorally administered to the patient.
person: acute gastritis
The conditions of te patient before administration were as follows.
The subjective symptoms included severe epigastralgia, anorexia, medium pyrosis, nausea, emesis, abdominal flatulence, gastric dysphoria, slight abdominal oppression, and eructation.
In endoscopy before administration, lesion of tunica mucosa ventriculi was recognized in the vestibulum (paries anterior venticuli, curvatura ventriculi minor, paries posterior ventriculi) and angularis (paries anterior ventriculi, curvatura ventriculi minor, paries posterior ventriculi).
(§2) 150 mg per day of teprenone, which is the compound according to the present invention, was perorally administered to the patient.

Data set [2] is described as follows: Clinical instances, acute animus state/stage of chronic gastritis, peroral teprenone (symptoms, endoscopy, side effects). The data set is classed as in vivo, human. The following applies: 150 mg per day perorally.
Excerpt: as §1
person: acute animus state of chronic gastritis
The conditions of the patient before administration were as follows.
The patient complained of subjective symptoms including severe pyrosis, eructation, and slight nausea and emesis. Lesion of mucosa ventriculi was endoscopically recognized in the curvature ventriculi major of the vestibulum.
as §2
(§3) person: acute animus stage of chronic gastritis
The conditions of the patient before administration were as follows. The patient complained of medium epigastralgia, slight abdominal oppression, gastric dysphoria, and anorexia. Lesion of tunica mucosa ventriculi was endoscopically recognized in the curvatura ventriculi minor of the angularis and the curvatura ventriculi minor of the corpus ventriculi.
as §3
The subjective symptoms included epigastralgia, pyrosis, abdominal oppression, gastric dysphoria, and eructation. The levels of them were all medium.
Endoscopically, lesion was recognized in the vestibulum (paries anterior ventriculi, curvatura ventriculi minor, paries posterior ventriculi).

A short description of data set [3]: Acute toxicity test, mouse (ICR). The following applies: in vivo. An excerpt:
(§4) |Acute Toxicity LD50 (mg/μg)

Data set [4] can be described thus: Acute toxicity test, rat (SD). The following applies: in vivo.
Excerpt: as §4

The nature of data set [5]: Acute toxicity test, dog (beagle). Conditions: in vivo, po, male, peroral.
Excerpt: as §4

Setting [6] is: Clinical Instance 5, after two weeks.

On to `CC(=O)CCC=C(C)CCC=C(C)CCC=C(C)CCC=C(C)C` (mixture of isomers) [3:2 mixture of (5E,9E,13E)-6,10,14,18-tetramethyl-5,9,13,17-nonadecatetraen-2-one and (5Z,9E,13E)-6,10,14,18-tetramethyl-5,9,13,17-nonadecatetraen-2-one], for which, in “Solubility” (organic solvents), the “solubility in organic solvents” value is “soluble in organic solvents”. Also, the solubility in water entry in “Solubility” (water) was “hardly soluble in water”.
Broadly, the LD50 is the dose at which mortality reaches 50%. A low value points to greater toxicity. On to `CC(=O)CCC=C(C)CCC=C(C)CCC=C(C)CCC=C(C)C` [teprenone, 6,10,14,18-tetramethyl-5,9,13,17-nonadecatetraen-2-one], for which the subjective symptoms result in data set [1] (Clinical Instance 1, person) is “all the symptons disappeared”; in data set [1] (Clinical Instance 3, person) it was “all the symptoms disappeared”; in data set [2] (Clinical Instance 2, person, chronic gastritis, 3 days after administration), “all the symptoms disappeared”; in data set [2] (Clinical Instance 4, person, chronic gastritis, 3 days after administration), “substantially all the symptoms disappeared except that slight epigastralgia remained”; in data set [2] (Clinical Instance 5, person, chronic gastritis, 3 days after administration) it was “the abdominal oppression, the gastric dysphoria, and the eructation were mitigated, but the epigastralgia and the pyrosis remained unchanged”; in data set [2] (Clinical Instance 5, a week after administration), “all the symptoms disappeared except for slight eructation”. Moreover, the “observation of clinical inspection” value in data set [1] (Clinical Instance 1) is recorded as “no abnormality was recognized”; in data set [1] (Clinical Instance 3), “no lesion was recognized”. The side effects entry is “no side effect altogether” in data set [1] (Clinical Instance 1), “no side effects altogether” in data set [1] (Clinical Instance 3) and “No side effects were regonized” in data set [2] (Clinical Instance 5). Further, the “endoscopy, lesion of tunica mucosa ventriculi” value in data set [1] (Clinical Instance 1) is “disappearance of the lesion of the tunica mucosa ventriculi was recognized”; in data set [1] (Clinical Instance 3), “disappearance of the lesion of tunica mucosa ventriculi was recognized”; in data set [2] (Clinical Instance 2, 16 days after administration), “disappearance of the lesion of tunica mucosa ventriculi was recognized”; in data set [2] (Clinical Instance 4, 14 days after administration), “disappearance of the lesion of tunica mucosa ventriculi was recognized”; in data set [2] (setting [6]) it was “the lesion of tunica mucosa ventriculi disappeared in all parts”. The “side effects, including observation of clinical inspection” value in data set [2] (Clinical Instance 2) and in data set [2] (Clinical Instance 4) was “No side effects were recognized altogether” in each case. In addition, the epigastralgia entry in data set [2] (Clinical Instance 4, 5 days after administration) is “the epigastralgia also disappeared”. The eructation result in data set [2] (setting [6]) is on record as “The eructation remained”. For the same compound, the LD50 is over 5000 mg/kg in data set [3] (im, female, intramuscular); over 5000 mg/kg in data set [3] (im, male, intramuscular); 3850 mg/kg in data set [3] (ip, female, intraperitoneal); 3750 mg/kg in data set [3] (ip, male, intraperitoneal); over 15000 mg/kg in data set [3] (po, female, peroral); over 15000 mg/kg in data set [3] (po, male, peroral). Besides, the LD50 in data set [3] (sc, female, subcutaneous) was over 10000 mg/kg; in data set [3] (sc, male, subcutaneous) it was over 10000 mg/kg; in data set [4] (im, female, intramuscular), over 5000 mg/kg; in data set [4] (im, male, intramuscular), over 5000 mg/kg; in data set [4] (ip, female, intraperitoneal), 3500 to 5000 mg/kg; in data set [4] (ip, male, intraperitoneal), over 5000 mg/kg. In addition, the LD50 in data set [4] (po, female, peroral) is over 15000 mg/kg; in data set [4] (po, male, peroral), over 15000 mg/kg; in data set [4] (sc, female, subcutaneous), over 10000 mg/kg; in data set [4] (sc, male, subcutaneous), over 10000 mg/kg; in data set [5] it was over 1000 mg/kg.
